The values below are quoted from earlier work in patent publication US7196163B2, “Assays using amyloid precursor proteins with modified β-secretase cleavage sites to monitor β-secretase activity” (Merk & Co., Inc., priority 2001, dated 2007).

For the data set, the system named is Cultured cells. Particulars: cultured cells expressing cDNA encoding APP; cited from earlier work.

With “NLDA (Swedish): APP Swedish mutant, NLDA at the β-secretase cleavage site”, the “Aβ produced relative to cells expressing wild-type APP” value was 6–8 fold.
